Test results reported in US9284318B2, “Protein kinase inhibitors” (Pharmascience, Inc., priority 2011, dated 2016).

Key:
EphA2 = biological target: T1, EphA2 (Homo sapiens, UniProt P29317); test: Kinase Profiler Service Assay, EphA2; type: biochemical; details: at 100 nM
T1 construct: purchased Millipore (Kinase Profiler Service)
Description: (§1) Selected kinase binding affinities were determined using Kinase Profiler™ Service Assay Protocols (Millipore, V53.0).

cFMS(h) = biological target: T2, cFMS(h) (Homo sapiens, UniProt P07333); test: Kinase Profiler Service Assay, cFMS; type: biochemical; details: at 100 nM
T2 construct: purchased Millipore (Kinase Profiler Service)
T2 sequence (P07333 20-972): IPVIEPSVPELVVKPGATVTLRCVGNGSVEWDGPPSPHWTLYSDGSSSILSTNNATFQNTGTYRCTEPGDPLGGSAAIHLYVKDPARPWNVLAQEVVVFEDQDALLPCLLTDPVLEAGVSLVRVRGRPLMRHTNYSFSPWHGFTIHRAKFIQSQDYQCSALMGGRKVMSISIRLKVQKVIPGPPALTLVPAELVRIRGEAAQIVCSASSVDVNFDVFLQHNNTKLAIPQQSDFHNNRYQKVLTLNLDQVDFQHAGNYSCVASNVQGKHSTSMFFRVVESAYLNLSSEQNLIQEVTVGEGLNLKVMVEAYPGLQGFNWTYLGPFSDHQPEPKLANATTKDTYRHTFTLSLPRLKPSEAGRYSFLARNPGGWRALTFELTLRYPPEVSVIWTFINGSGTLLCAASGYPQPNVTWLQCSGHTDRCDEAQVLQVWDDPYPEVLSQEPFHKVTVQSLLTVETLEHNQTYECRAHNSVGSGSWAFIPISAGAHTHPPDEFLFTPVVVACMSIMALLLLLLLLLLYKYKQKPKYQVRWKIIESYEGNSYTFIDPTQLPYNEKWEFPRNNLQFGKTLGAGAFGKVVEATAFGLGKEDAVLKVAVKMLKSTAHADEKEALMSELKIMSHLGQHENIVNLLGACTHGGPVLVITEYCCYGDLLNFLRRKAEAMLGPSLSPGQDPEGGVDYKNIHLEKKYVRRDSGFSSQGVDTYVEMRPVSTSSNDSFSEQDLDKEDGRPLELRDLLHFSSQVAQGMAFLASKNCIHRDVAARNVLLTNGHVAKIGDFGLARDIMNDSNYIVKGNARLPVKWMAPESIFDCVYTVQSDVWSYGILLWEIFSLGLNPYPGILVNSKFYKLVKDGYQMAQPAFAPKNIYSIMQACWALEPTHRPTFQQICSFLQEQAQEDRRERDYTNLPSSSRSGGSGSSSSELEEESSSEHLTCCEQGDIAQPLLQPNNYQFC
Description: as §1

MV4-11 cells = test: Human MV4-11 biphenotypic B myelomonocytic leukemia cell survival assay; type: cell-based; details: cell survival at 72h, Cell Titer-Glo
Description: Human MV4-11 Biphenotypic B Myelomonocytic Leukemia Cell Survival Assay
Biphenotypic B myelomonocytic leukemia MV4-11 cells (ATCC CRL-9591) were cultured in suspension at 37° C., 5% CO2 in complete medium (RPMI supplemented with 10% FBS, 1% penicillin/streptomycin). One day prior to treatment, cells per seeded in 96-well plates at 8000 cells/well in complete medium. The following day, triplicate wells were treated with compound curves of 100, 1000 or 10,000 nM starting concentration according to compound potency. Cell survival was measured 72h later by Cell Titer-Glo Luminescent Assay (Promega). Luminescence was read using a Tecan Infinite F200 microplate reader. EC50 values (50% survival in the presence of compound as compared to vehicle treated controls) were calculated from non-linear fit dose response compound curves using CambridgeSoft BioAssay software (Perkin Elmer).

216 other kinases = test: Kinase Profiler Service Assay, selectivity panel; type: biochemical; details: at 300 nM
Description: as §1

KDR(h) = biological target: T3, KDR(h) (Homo sapiens, UniProt P35968); test: Kinase Profiler Service Assay, KDR; type: biochemical; details: at 100 nM
T3 construct: purchased Millipore (Kinase Profiler Service)
T3 sequence (P35968 20-1356): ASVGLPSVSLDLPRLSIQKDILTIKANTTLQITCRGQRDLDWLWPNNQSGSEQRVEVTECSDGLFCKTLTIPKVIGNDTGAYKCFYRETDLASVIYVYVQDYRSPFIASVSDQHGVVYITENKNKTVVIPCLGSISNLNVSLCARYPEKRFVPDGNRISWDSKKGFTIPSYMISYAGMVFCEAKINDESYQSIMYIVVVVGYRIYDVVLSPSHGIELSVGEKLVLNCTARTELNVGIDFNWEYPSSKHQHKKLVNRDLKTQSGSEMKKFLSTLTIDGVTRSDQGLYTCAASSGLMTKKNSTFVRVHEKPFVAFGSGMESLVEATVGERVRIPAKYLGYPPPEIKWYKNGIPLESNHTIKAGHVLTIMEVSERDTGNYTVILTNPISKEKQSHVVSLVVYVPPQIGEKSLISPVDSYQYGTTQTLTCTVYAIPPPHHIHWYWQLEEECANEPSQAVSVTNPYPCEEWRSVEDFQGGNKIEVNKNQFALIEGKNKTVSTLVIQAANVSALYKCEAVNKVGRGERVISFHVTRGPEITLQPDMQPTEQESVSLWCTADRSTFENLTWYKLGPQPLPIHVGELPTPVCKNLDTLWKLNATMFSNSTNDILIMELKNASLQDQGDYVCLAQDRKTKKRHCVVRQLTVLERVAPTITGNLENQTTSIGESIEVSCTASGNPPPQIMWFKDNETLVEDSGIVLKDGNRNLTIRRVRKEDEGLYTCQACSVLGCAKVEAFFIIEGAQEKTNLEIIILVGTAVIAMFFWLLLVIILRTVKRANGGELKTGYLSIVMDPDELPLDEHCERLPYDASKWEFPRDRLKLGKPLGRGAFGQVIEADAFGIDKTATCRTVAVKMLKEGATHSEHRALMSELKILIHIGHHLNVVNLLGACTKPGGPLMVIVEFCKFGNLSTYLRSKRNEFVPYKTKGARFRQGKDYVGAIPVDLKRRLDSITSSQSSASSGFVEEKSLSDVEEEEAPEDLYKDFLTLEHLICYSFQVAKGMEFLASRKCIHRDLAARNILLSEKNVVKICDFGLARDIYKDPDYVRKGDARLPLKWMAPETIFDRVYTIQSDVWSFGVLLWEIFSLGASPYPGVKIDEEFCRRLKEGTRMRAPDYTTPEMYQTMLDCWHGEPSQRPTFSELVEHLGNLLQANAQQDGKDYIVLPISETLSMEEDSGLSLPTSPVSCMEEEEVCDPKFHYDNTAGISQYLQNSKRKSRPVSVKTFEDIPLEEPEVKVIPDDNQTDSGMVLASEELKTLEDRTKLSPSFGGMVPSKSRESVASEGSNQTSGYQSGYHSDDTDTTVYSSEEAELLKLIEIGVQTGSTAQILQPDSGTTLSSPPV
Description: as §1

FGFR1 = biological target: T4, FGFR1 (Homo sapiens, UniProt P11362); test: Kinase Profiler Service Assay, FGFR1; type: biochemical; details: at 100 nM
T4 construct: purchased Millipore (Kinase Profiler Service)
T4 sequence (P11362 22-822): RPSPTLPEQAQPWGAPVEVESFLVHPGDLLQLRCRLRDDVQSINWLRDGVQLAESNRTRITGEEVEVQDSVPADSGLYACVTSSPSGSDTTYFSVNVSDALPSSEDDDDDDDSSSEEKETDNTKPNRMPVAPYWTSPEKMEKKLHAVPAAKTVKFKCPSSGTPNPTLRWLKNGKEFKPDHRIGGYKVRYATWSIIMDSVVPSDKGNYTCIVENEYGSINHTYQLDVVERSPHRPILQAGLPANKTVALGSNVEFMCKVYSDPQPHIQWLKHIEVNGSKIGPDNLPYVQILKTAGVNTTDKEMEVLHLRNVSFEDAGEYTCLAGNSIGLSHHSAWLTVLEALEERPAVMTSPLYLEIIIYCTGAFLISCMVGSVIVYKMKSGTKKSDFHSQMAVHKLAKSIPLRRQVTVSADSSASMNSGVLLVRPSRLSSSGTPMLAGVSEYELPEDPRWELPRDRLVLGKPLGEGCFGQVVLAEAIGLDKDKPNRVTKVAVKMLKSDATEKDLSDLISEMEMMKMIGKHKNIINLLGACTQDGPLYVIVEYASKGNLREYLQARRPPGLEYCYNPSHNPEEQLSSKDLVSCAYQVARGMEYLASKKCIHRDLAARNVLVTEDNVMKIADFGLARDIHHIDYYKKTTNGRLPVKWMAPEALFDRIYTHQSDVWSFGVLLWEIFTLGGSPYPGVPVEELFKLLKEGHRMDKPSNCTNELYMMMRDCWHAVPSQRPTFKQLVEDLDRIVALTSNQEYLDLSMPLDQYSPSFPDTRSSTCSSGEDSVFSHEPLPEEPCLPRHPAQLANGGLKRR
Description: as §1

[1] = biological target: T5, recombinant human colony stimulating factor 1 receptor (FMS) (Homo sapiens, UniProt P07333); test: Biochemical cFMS (CSF1R) fluorescence polarization kinase assay; details: 10 μM ATP, 100 μM substrate, 60 minutes
T5 construct: containing the catalytic domain (amino acids 538-910); His tag; purchased Invitrogen; host or cells: insect cells
T5 sequence (P07333 538-910): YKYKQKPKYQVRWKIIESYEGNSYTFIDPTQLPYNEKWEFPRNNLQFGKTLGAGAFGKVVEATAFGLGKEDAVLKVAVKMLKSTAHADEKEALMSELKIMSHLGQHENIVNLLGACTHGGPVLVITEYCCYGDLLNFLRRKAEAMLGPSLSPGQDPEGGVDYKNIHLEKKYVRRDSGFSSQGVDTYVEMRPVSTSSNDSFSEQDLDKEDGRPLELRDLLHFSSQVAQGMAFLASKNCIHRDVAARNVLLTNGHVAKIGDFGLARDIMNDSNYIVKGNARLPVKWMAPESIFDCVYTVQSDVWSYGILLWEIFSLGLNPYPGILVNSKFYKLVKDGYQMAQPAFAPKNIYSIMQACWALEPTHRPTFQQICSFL
Description: Biochemical cFMS (CSF1R) Assay:
Fluorescence polarization-based kinase biochemical assays were performed in 384 well-plate format using histidine tagged recombinant human colony stimulating factor 1 receptor (FMS) supplied from Invitrogen™ (containing the catalytic domain (amino acids 538-910), expressed in insect cells and activated in vitro via auto phosphorylation) and a modified protocol of the KinEASE™ FP Fluorescein Green Assay supplied from Millipore™.
Kinase reactions were performed in 384 well plate format at room temperature for 60 minutes in presence of 100 μM substrate, 10 μM ATP and variable test article concentrations. The reaction was stopped with EDTA/KinEASE™ detection reagents and the polarization measured on a Tecan 500 instrument. From the dose-response curve obtained, the IC50 was estimated using Graph pad Prisms® using a non linear fit curve.

[2] = system: M-NFS-60 M-CSF-dependent myeloid leukemia cells; test: Murine M-CSF-dependent M-NFS-60 cell survival assay; type: cell-based; details: Mus musculus; cell survival at 72 hours, 20 ng/ml M-CSF, Cell Titer-Glo
Description: Cellular Assays: Murine M-CSF-Dependent M-NFS-60 Cell Survival Assay
Murine M-NFS-60 M-CSF-dependent myeloid leukemia cells were purchased from ATCC (CRL-1838). Cells were routinely cultured at 37° C., 5% CO2 in complete medium (RPMI supplemented with 10% FBS, 1% penicillin/streptomycin, 50 uM beta mercaptoethanol) containing 30 ng/ml recombinant murine M-CSF (Peprotech 315-02). For survival assays, cells were transferred to depleted medium (complete medium depleted of M-CSF) for 24 hours prior to initiation of each experiment. M-CSF-starved cells were harvested and re-suspended in complete medium containing 20 ng/ml M-CSF. Cells were seeded at 25,000 cells/well in 96-well plates and incubated for 1 hour at 37° C., 5% CO2. Cells were treated with 1 uM or 10 uM compound curves in triplicate and cell survival was measured 72 hours later by Cell Titer-Glo Luminescent Assay (Promega). Luminescence was read using a Tecan Infinite F200 microplate reader. EC50 values (50% survival in the presence of compound as compared to vehicle treated controls) were calculated from non-linear fit dose response compound curves using GraphPad Prism Software.

Flt3 (h) = biological target: T6, Flt3 (h) (Homo sapiens, UniProt P36888); test: Kinase Profiler Service Assay, Flt3; type: biochemical; details: at 100 nM
T6 construct: purchased Millipore (Kinase Profiler Service)
T6 sequence (P36888 27-993): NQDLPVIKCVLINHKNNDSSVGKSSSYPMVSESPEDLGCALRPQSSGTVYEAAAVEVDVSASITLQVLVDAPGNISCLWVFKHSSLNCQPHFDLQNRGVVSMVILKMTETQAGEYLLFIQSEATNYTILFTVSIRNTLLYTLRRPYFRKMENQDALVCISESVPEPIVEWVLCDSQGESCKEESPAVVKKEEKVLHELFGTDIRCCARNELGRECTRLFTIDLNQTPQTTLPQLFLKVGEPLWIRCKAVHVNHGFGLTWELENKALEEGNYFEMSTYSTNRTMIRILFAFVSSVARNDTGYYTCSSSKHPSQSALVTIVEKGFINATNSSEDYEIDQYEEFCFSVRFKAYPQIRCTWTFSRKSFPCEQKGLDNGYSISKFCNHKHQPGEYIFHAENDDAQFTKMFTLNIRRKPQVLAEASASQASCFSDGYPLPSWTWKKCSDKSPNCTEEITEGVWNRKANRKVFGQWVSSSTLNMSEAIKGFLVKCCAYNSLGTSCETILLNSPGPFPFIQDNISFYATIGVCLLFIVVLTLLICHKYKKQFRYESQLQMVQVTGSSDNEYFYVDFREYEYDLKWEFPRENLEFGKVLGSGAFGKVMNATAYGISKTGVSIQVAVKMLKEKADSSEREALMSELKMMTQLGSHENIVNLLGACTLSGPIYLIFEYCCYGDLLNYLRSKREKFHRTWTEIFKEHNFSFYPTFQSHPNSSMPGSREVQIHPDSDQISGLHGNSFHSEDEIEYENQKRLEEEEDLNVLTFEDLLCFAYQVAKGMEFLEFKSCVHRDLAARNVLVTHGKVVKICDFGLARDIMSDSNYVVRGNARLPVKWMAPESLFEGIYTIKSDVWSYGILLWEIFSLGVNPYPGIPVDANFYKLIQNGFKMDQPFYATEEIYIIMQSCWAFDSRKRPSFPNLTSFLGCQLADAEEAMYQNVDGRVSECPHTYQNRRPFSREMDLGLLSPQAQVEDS
Description: as §1

Tie2 = biological target: T7, Tie2 (Homo sapiens, UniProt Q02763); test: Kinase Profiler Service Assay, Tie2; type: biochemical; details: at 100 nM
T7 construct: purchased Millipore (Kinase Profiler Service)
Description: as §1

PDGFR-b(h) = biological target: T8, PDGFR-b(h) (Homo sapiens, UniProt P09619); test: Kinase Profiler Service Assay, PDGFR-b; type: biochemical; details: at 100 nM
T8 construct: purchased Millipore (Kinase Profiler Service)
Description: as §1

FLT4 = biological target: T9, FLT4 (Homo sapiens, UniProt P35916); test: Kinase Profiler Service Assay, FLT4; type: biochemical; details: at 100 nM
T9 construct: purchased Millipore (Kinase Profiler Service)
Description: as §1

Aurora-B(h) = biological target: T10, Aurora-B(h) (Homo sapiens, UniProt Q96GD4); test: Kinase Profiler Service Assay, Aurora-B; type: biochemical; details: at 100 nM
T10 construct: purchased Millipore (Kinase Profiler Service)
T10 sequence (Q96GD4 whole entry): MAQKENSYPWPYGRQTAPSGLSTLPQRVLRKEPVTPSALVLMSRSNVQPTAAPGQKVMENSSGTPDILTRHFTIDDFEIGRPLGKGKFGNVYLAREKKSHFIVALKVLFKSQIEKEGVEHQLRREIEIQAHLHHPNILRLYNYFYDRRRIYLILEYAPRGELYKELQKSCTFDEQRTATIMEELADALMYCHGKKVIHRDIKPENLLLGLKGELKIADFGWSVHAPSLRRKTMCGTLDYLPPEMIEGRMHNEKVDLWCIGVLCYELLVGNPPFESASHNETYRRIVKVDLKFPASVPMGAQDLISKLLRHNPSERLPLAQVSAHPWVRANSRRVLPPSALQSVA
Description: as §1

T1 sequence (P29317 24-976): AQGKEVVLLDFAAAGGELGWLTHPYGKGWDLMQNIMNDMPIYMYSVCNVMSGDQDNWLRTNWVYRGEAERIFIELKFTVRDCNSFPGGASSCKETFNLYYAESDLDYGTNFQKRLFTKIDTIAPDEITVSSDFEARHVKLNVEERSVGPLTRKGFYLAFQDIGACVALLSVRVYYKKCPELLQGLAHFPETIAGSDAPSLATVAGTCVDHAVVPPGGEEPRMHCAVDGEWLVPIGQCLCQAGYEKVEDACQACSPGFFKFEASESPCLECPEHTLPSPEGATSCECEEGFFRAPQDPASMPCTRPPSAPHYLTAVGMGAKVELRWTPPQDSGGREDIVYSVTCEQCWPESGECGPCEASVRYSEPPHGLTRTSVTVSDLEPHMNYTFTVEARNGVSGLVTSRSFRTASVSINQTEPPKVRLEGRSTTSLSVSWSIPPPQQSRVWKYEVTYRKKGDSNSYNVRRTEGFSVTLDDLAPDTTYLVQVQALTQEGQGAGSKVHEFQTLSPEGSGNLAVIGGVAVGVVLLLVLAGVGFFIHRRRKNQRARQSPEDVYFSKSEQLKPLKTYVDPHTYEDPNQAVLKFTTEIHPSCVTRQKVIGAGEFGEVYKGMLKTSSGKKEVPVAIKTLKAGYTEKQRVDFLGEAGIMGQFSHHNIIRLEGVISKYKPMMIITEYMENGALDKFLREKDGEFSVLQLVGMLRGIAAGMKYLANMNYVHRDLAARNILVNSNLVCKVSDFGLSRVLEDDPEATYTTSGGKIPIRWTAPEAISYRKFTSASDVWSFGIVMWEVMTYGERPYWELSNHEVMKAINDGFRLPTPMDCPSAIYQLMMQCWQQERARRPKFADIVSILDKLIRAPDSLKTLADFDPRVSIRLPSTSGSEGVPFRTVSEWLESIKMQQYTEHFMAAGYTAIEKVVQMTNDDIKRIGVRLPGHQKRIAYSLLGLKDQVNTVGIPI

Structure (SMILES) | inhibition of EphA2 (EphA2) | inhibition of cFMS (cFMS(h)) | EC50 (MV4-11 cells) [nM] | inhibition of 216 other kinases (selectivity) (216 other kinases) [%] | inhibition of KDR (KDR(h)) | inhibition of FGFR1 (FGFR1) | IC50 [1] [nM] | EC50 [2] [nM] | inhibition of Flt3 (Flt3 (h)) | inhibition of Tie2 (Tie2) | inhibition of PDGFR-b (PDGFR-b(h)) | inhibition of FLT4 (FLT4) | inhibition of Aurora-B (Aurora-B(h))
Nc1ncnc2c3c(n(-c4ccc(NC(=O)Nc5cc(C(F)(F)F)ccc5F)cc4)c12)CCC3 [Compound 44] | inhibits | inhibits | < 100 | ≤ 20 | inhibits | inhibits | 100 to 1000 | 100 to 1000 | inhibits | – | – | – | –
Nc1ncnc2c3c(n(-c4ccc(NC(=O)Nc5ccc(F)cc5)cc4)c12)CCC3 [Compound 14] | – | inhibits | < 100 | – | inhibits | inhibits | 100 to 1000 | < 100 | inhibits | inhibits | inhibits | inhibits | inhibits
